Measured values: patent publication US6352958B1, “Cycloimido-substituted benzofused heterocyclic herbicides” (FMC Corporation, priority 1997, dated 2002)

Experiments:
Type in all cases: in vivo
[1] = system: Johnsongrass (Sorghum halepense); experiment: Preemergence herbicidal activity, johnsongrass; settings: Rate of Application 0.3 Kg/Ha, examined after 12-17 days
Description: (§1) The benzofused heterocyclic compounds of this invention were tested for pre- and postemergence herbicidal activity using a variety of crops and weeds. The test plants included soybean (Glycine max var. Winchester), field corn (Zea mays var. Pioneer 3732), wheat (Triticum aestivum var. Lew), morningglory (Ipomea lacunosa or Ipomea hederacea), velvetleaf (Abutilon theophrasti), green foxtail (Setaria viridis), Johnsongrass (Sorghum halepense), blackgrass (Aloepecurus myosuroides), common chickweed (Stellaria media), and common cocklebur (Xanthium strumarium L.).
(§2) For preemergence testing, two disposable fiber flats (8 cm×15 cm×25 cm) for each rate of application of each candidate herbicide were filled to an approximate depth of 6.5 cm with steam-sterilized sandy loam soil. The soil was leveled and impressed with a template to provide five evenly spaced furrows 13 cm long and 0.5 cm deep in each flat. Seeds of soybean, wheat, corn, green foxtail, and johnsongrass were planted in the furrows of the first flat, and seeds of velvetleaf, morningglory, common chickweed, cocklebur, and blackgrass were planted in the furrows of the second flat. The five-row template was employed to firmly press the seeds into place. A topping soil of equal portions of sand and sandy loam soil was placed uniformly on top of each flat to a depth of approximately 0.5 cm. Flats for postemergence testing were prepared in the same manner except that they were planted 9-14 days prior to the preemergence flats and were placed in a greenhouse and watered, thus allowing the seeds to germinate and the foliage to develop.
(§3) In both pre- and postemergence tests, a stock solution of the candidate herbicide was prepared by dissolving 0.27 g of the compound in 20 mL of water/acetone (50/50) containing 0.5% v/v sorbitan monolaurate. For an application rate of 3000 g/ha of herbicide a 10 mL portion of the stock solution was diluted with water/acetone (50/50) to 45 mL.
(§4) The preemergence flats were initially subjected to a light water spray. The four flats were placed two by two along a conveyor belt (i.e., the two preemergence followed by the two postemergence flats). The conveyor belt fed under a spray nozzle mounted about ten inches above the post-emergent foliage. The preemergent flats were elevated on the belt so that the soil surface was at the same level below the spray nozzle as the foliage canopy of the postemergent plants. The spray of herbicidal solution was commenced and once stabilized, the flats were passed under the spray at a speed to receive a coverage equivalent of 100 L/ha. At this coverage the application rates are those shown in the above table for the individual herbicidal solutions. The preemergence flats were watered immediately thereafter, placed in the greenhouse and watered regularly at the soil surface. The postemergence flats were immediately placed in the green-house and not watered until 24 hours after treatment with the test solution. Thereafter they were regularly watered at ground level. After 12-17 days the plants were examined and the phytotoxicity data were recorded.
(§5) Phytotoxicity data were taken as percent control. Percent control was determined by a method similar to the 0 to 100 rating system disclosed in “Research Methods in Weed Science,” 2nd ed., B. Truelove, Ed.; Southern Weed Science Society; Auburn University, Auburn, Ala., 1977.

[2] = system: morningglory (Ipomea lacunosa or Ipomea hederacea); experiment: Postemergence herbicidal activity, morningglory; settings: rate of application 0.3 Kg/Ha, rated after 12-17 days
Description: as §1, §2, §3, §4, §5

[3] = system: Johnsongrass (Sorghum halepense); experiment: Postemergence herbicidal activity, johnsongrass; settings: rate of application 0.3 Kg/Ha, rated after 12-17 days
Description: as §1, §2, §3, §4, §5

[4] = system: soybean (Glycine max var. Winchester); experiment: Preemergence herbicidal activity, soybean; settings: Rate of Application 0.3 Kg/Ha, examined after 12-17 days
Description: as §1, §2, §3, §4, §5

[5] = system: morningglory (Ipomea lacunosa or Ipomea hederacea); experiment: Preemergence herbicidal activity, morningglory; settings: Rate of Application 0.3 Kg/Ha, examined after 12-17 days
Description: as §1, §2, §3, §4, §5

[6] = system: green foxtail (Setaria viridis); experiment: Preemergence herbicidal activity, green foxtail; settings: Rate of Application 0.3 Kg/Ha, examined after 12-17 days
Description: as §1, §2, §3, §4, §5

[7] = system: soybean (Glycine max var. Winchester); experiment: Postemergence herbicidal activity, soybean; settings: rate of application 0.3 Kg/Ha, rated after 12-17 days
Description: as §1, §2, §3, §4, §5

[8] = system: field corn (Zea mays var. Pioneer 3732); experiment: Postemergence herbicidal activity, corn; settings: rate of application 0.3 Kg/Ha, rated after 12-17 days
Description: as §1, §2, §3, §4, §5

[9] = system: blackgrass (Aloepecurus myosuroides); experiment: Preemergence herbicidal activity, blackgrass; settings: Alopecurus myosuroides, pre-emergence, Rate of Application 0.3 Kg/Ha, examined after 12-17 days, read-out: PREEMERGENCE HERBICIDAL ACTIVITY (% CONTROL) ALOMY
Description: as §1, §2, §3, §4, §5

[10] = system: field corn (Zea mays var. Pioneer 3732); experiment: Preemergence herbicidal activity, corn; settings: Rate of Application 0.3 Kg/Ha, examined after 12-17 days
Description: as §1, §2, §3, §4, §5

[11] = system: common cocklebur (Xanthium strumarium L.); experiment: Preemergence herbicidal activity, cocklebur; settings: Rate of Application 0.3 Kg/Ha, examined after 12-17 days
Description: as §1, §2, §3, §4, §5

[12] = system: green foxtail (Setaria viridis); experiment: Postemergence herbicidal activity, green foxtail; settings: rate of application 0.3 Kg/Ha, rated after 12-17 days
Description: as §1, §2, §3, §4, §5

[13] = system: wheat (Triticum aestivum var. Lew); experiment: Preemergence herbicidal activity, wheat; settings: Rate of Application 0.3 Kg/Ha, examined after 12-17 days
Description: as §1, §2, §3, §4, §5

[14] = system: wheat (Triticum aestivum var. Lew); experiment: Postemergence herbicidal activity, wheat; settings: rate of application 0.3 Kg/Ha, rated after 12-17 days
Description: as §1, §2, §3, §4, §5

[15] = system: velvetleaf (Abutilon theophrasti); experiment: Postemergence herbicidal activity, velvetleaf; settings: rate of application 0.3 Kg/Ha, rated after 12-17 days
Description: as §1, §2, §3, §4, §5

[16] = system: velvetleaf (Abutilon theophrasti); experiment: Preemergence herbicidal activity, velvetleaf; settings: Rate of Application 0.3 Kg/Ha, examined after 12-17 days
Description: as §1, §2, §3, §4, §5

[17] = system: common cocklebur (Xanthium strumarium L.); experiment: Postemergence herbicidal activity, cocklebur; settings: rate of application 0.3 Kg/Ha, rated after 12-17 days
Description: as §1, §2, §3, §4, §5

[18] = system: common chickweed (Stellaria media); experiment: Preemergence herbicidal activity, chickweed; settings: Rate of Application 0.3 Kg/Ha, examined after 12-17 days
Description: as §1, §2, §3, §4, §5

[19] = system: common chickweed (Stellaria media); experiment: Postemergence herbicidal activity, chickweed; settings: rate of application 0.3 Kg/Ha, rated after 12-17 days
Description: as §1, §2, §3, §4, §5

Row | SMILES | PREEMERGENCE HERBICIDAL ACTIVITY (% CONTROL) SORHA [1] | Postemergence herbicidal activity (% control) IPOSS [2] | Postemergence herbicidal activity (% control) SORHA [3] | PREEMERGENCE HERBICIDAL ACTIVITY (% CONTROL) SOY [4] | PREEMERGENCE HERBICIDAL ACTIVITY (% CONTROL) IPOSS [5] | PREEMERGENCE HERBICIDAL ACTIVITY (% CONTROL) SETVI [6] | Postemergence herbicidal activity (% control) SOY [7] | Postemergence herbicidal activity (% control) CRN [8] | PREEMERGENCE HERBICIDAL ACTIVITY (% CONTROL) CRN [10] | Postemergence herbicidal activity (% control) XANPE [17] | PREEMERGENCE HERBICIDAL ACTIVITY (% CONTROL) XANPE [11] | Postemergence herbicidal activity (% control) SETVI [12] | PREEMERGENCE HERBICIDAL ACTIVITY (% CONTROL) WHT [13] | PREEMERGENCE HERBICIDAL ACTIVITY (% CONTROL) STEME [18] | Postemergence herbicidal activity (% control) WHT [14] | Postemergence herbicidal activity (% control) ABUTH [15] | PREEMERGENCE HERBICIDAL ACTIVITY (% CONTROL) ABUTH [16] | Postemergence herbicidal activity (% control) STEME [19] | further results
1 | CC(=O)OC(C)(C)c1nc2c(-n3c(=O)cc(C(F)(F)F)n(C)c3=O)c(F)cc(Br)c2o1 [Compound 104, 1-METHYL-6-TRIFLUOROMETHYL-3-[7-BROMO-5-FLUORO-2-(2-METHYLCARBONYLOXYPROP-2-YL)BENZOXAZOL-4-YL]-2,4(1 H,3H)-PYRIMIDINEDIONE] | – | – | – | – | – | – | – | – | – | – | – | – | – | – | – | – | – | – | inhibition at 300 g/ha ([1]; Sorghum halepense, pre-emergence, read-out: PREEMERGENCE HERBICIDAL ACTIVITY (% CONTROL) SORHA): 100%; inhibition at 300 g/ha ([2]; Ipomoea, post-emergence, read-out: Postemergence herbicidal activity (% control) IPOSS): 100%; inhibition at 300 g/ha ([3]; Sorghum halepense, post-emergence, read-out: Postemergence herbicidal activity (% control) SORHA): 100%; inhibition at 300 g/ha ([4]; Glycine max, pre-emergence, read-out: PREEMERGENCE HERBICIDAL ACTIVITY (% CONTROL) SOY): 100%; inhibition at 300 g/ha ([5]; Ipomoea, pre-emergence, read-out: PREEMERGENCE HERBICIDAL ACTIVITY (% CONTROL) IPOSS): 100%; inhibition at 300 g/ha ([6]; Setaria viridis, pre-emergence, read-out: PREEMERGENCE HERBICIDAL ACTIVITY (% CONTROL) SETVI): 100%; inhibition at 300 g/ha ([7]; Glycine max, post-emergence, read-out: Postemergence herbicidal activity (% control) SOY): 100%; inhibition at 300 g/ha ([8]; Zea mays, post-emergence, read-out: Postemergence herbicidal activity (% control) CRN): 100%; inhibition at 300 g/ha [9]: 100%; inhibition at 300 g/ha ([10]; Zea mays, pre-emergence, read-out: PREEMERGENCE HERBICIDAL ACTIVITY (% CONTROL) CRN): 100%; inhibition at 300 g/ha ([11]; Xanthium strumarium, pre-emergence, read-out: PREEMERGENCE HERBICIDAL ACTIVITY (% CONTROL) XANPE): 100%; inhibition at 300 g/ha ([12]; Setaria viridis, post-emergence, read-out: Postemergence herbicidal activity (% control) SETVI): 100%; inhibition at 300 g/ha ([13]; Triticum aestivum, pre-emergence, read-out: PREEMERGENCE HERBICIDAL ACTIVITY (% CONTROL) WHT): 100%; inhibition at 300 g/ha ([14]; Triticum aestivum, post-emergence, read-out: Postemergence herbicidal activity (% control) WHT): 100%; inhibition at 300 g/ha ([15]; Abutilon theophrasti, post-emergence, read-out: Postemergence herbicidal activity (% control) ABUTH): 100%; inhibition at 300 g/ha ([16]; Abutilon theophrasti, pre-emergence, read-out: PREEMERGENCE HERBICIDAL ACTIVITY (% CONTROL) ABUTH): 100%
2 | CCCCc1cc2c(Cl)ccc(-n3c(=O)cc(C(F)(F)F)n(C)c3=O)c2o1 [Compound 225] | 60% | 75% | 60% | 40% | 50% | 100% | 60% | 60% | 30% | 70% | 50% | 90% | 20% | 70% | 30% | 100% | 90% | – | –
3 | Cn1c(C(F)(F)F)cc(=O)n(-c2c(F)cc(Cl)c3cc(CCO)oc23)c1=O [Compound 239] | 90% | 100% | 80% | 100% | 100% | 100% | 95% | 80% | 90% | 100% | – | 100% | 70% | 100% | 60% | 100% | 100% | 100% | –
4 | CCOC(=O)c1cc2c(Cl)ccc(-n3c(=O)cc(C(F)(F)F)n(C)c3=O)c2o1 [Compound 268] | 60% | 90% | 40% | 30% | 95% | 60% | 70% | 60% | 50% | – | 0% | 70% | 30% | 20% | 40% | 50% | 100% | 20% | –
